We go through two compounds from PubChem BioAssay (NCI).

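Where inhibition never reached the appropriate level, the endpoint shown equals the highest concentration tested. Otherwise, values were interpolated linearly from a five-concentration, 48-hour dose response in 96-well plates. GI50 marks 50% less growth. TGI marks complete inhibition of growth.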

Test systems include SK-MEL-2 melanoma; HOP-92 NSCLC; MOLT-4 leukemia; LOX IMVI melanoma; OVCAR-4 ovarian; MDA-MB-435; OVCAR-3 ovarian; NCI-H226 lung; MALME-3M melanoma; NCI-H23 lung.
What all share (experiment): NCI tumour cell line growth inhibition, 48 h

In the case of `CC(=O)c1ccc(Oc2c3ccccc3nc3occc23)cc1`, the GI50 with SK-MEL-2 melanoma is over 100000 nM; with HOP-92 NSCLC, 31600 nM; in the assay with MOLT-4 leukemia, 5710 nM; with LOX IMVI melanoma it was 6350 nM; in the assay on OVCAR-4 ovarian it was 46900 nM; in the assay with MDA-MB-435, 2020 nM. Further, the GI50 is 2190 nM in the assay with OVCAR-3 ovarian, 15100 nM in the assay on NCI-H226 lung, 4140 nM in the assay on MALME-3M melanoma and 18900 nM with NCI-H23 lung. For the same compound, the TGI in the assay on SK-MEL-2 melanoma is over 100000 nM; with HOP-92 NSCLC, over 100000 nM; in the assay with MOLT-4 leukemia, over 100000 nM; in the assay on LOX IMVI melanoma, over 100000 nM; in the assay with OVCAR-4 ovarian it was over 100000 nM; in the assay on MDA-MB-435 it was 5410 nM. For the same compound, the TGI with OVCAR-3 ovarian was 6580 nM; in the assay on NCI-H226 lung it was 90300 nM; with MALME-3M melanoma, over 100000 nM; in the assay with NCI-H23 lung, over 100000 nM.

On to `CCCCC[C@H]1C/C=C2/C(=O)C(Cl)=C[C@@H]2C/C=C\CCCC(=O)O1`, for which the GI50 in the assay with SK-MEL-2 melanoma was 439 nM; in the assay on HOP-92 NSCLC, 587 nM; with MOLT-4 leukemia it was 117 nM; in the assay with LOX IMVI melanoma, 126 nM; with OVCAR-4 ovarian, 735 nM; in the assay on MDA-MB-435 it was 337 nM. Further, the GI50 was 366 nM with OVCAR-3 ovarian, 544 nM in the assay with NCI-H226 lung, 573 nM in the assay with MALME-3M melanoma and 493 nM in the assay with NCI-H23 lung. Moreover, the TGI is 1130 nM in the assay on SK-MEL-2 melanoma; 1380 nM with HOP-92 NSCLC; 2980 nM with MOLT-4 leukemia; 449 nM in the assay on LOX IMVI melanoma; 3830 nM with OVCAR-4 ovarian; 1110 nM with MDA-MB-435. The TGI came out at 1260 nM with OVCAR-3 ovarian, 1500 nM with NCI-H226 lung, 1530 nM in the assay on MALME-3M melanoma and 1180 nM with NCI-H23 lung.
